Data from the NIST ThermoML archive (doi:10.1021/je100556t).
± gives the expanded uncertainty stated by the source.

details: 298.15 K; 101.33 kPa; Liquid

Row | molar volume [m3/mol] | SMILES
1 | 9.742e-05 ± 4e-08 | CCOCCO [2-ethoxyethan-1-ol]
2 | 8.174e-05 ± 4e-08 | C1CCOC1 [tetrahydrofuran]
3 | 5.866e-05 ± 5e-08 | CCO [ethanol]
4 | 7.926e-05 ± 3e-08 | COCCO [2-methoxyethan-1-ol]
5 | 0.0001088 ± 9e-08 | C1CCCCC1 [cyclohexane]
